Reference: article PMC10684765, “Inhibition of rat locus coeruleus neurons by prostaglandin E2 EP3 receptors: pharmacological characterization ex vivo” (Frontiers in Pharmacology, 2023)
Where two headings read alike, the source gives them in different places.

Columns and labels:
EP3 receptor [1] = target: T1, EP3 receptor (Rattus norvegicus, UniProt P34980); experiment: inhibition of LC neuron firing, single-unit extracellular recording; shifted by EP3 antagonist L-798, […]
T1 construct: gene Ptger3; native receptor in locus coeruleus neurons, brain slices
T1 sequence (P34980 1-365): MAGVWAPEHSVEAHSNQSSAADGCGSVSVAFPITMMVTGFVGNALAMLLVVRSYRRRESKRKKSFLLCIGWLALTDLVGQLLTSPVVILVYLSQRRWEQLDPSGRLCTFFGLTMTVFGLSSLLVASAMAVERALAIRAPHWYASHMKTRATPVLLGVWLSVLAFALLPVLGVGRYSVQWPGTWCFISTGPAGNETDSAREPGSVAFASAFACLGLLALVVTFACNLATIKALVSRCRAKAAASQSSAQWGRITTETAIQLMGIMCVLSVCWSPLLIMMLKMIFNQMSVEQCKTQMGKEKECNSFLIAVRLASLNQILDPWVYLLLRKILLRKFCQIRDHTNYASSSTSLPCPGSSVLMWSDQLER

EP3 receptor [2] = target: T1, EP3 receptor; experiment: antagonism of sulprostone concentration-effect curves, single-unit recording in rat LC slices (Schild-derived fit)

CCCCC(C)(O)C/C=C/[C@H]1[C@H](O)CC(=O)[C@@H]1CCCCCCC(=O)O (relative stereo) [misoprostol free acid]
EC50 (EP3 receptor [1]; read-out: (EC50)): 50.7 nM

CS(=O)(=O)NC(=O)CCC/C=C\C[C@H]1C(=O)C[C@@H](O)[C@@H]1/C=C/[C@@H](O)COc1ccccc1 [sulprostone]
EC50 (EP3 receptor [1]; read-out: (EC50)): 14.8 nM

CCCCC[C@H](O)/C=C/[C@H]1[C@H](O)CC(=O)[C@@H]1C/C=C\CCCC(=O)O [prostaglandin E2]
EC50 (EP3 receptor [1]): 110 nM

COc1ccc(Br)cc1S(=O)(=O)NC(=O)/C=C/c1ccccc1Cc1ccc2ccccc2c1 [L-798,106]
Kb (EP3 receptor [2]): 5.77 ± 0.10 pKB
